The data set in a line: Human HepG2 cell viability assay in 384 well format. Details: dose 125 nL, time 70.5 hour; cytotoxicity at 70.5 h: concentration not given beside the values. The conditions noted are these: HepG2 cells, read-out: Inhibition. Format: toxicity, cell-based.
Regarding `CCC[C@H]1CN(S(=O)(=O)N(C)Cc2ccccc2)C[C@@H]1N`, the cytotoxicity at 70.5 h turned out to be 1.2%.

As to `CCNC(=O)N1CC[C@@H](CC(=O)O)[C@@H](CC2=NCCc3ccccc32)C1`, the cytotoxicity at 70.5 h was -2.71%.

Take `CN(C)C(=O)c1cc(-c2ccccc2)[nH]n1`: the cytotoxicity at 70.5 h was -6.41%.

For the compound `c1cc(CN2CCCC23CCCN(Cc2ccoc2)C3)ccn1` (stereo unspecified), the cytotoxicity at 70.5 h is -3.1%.

With `Cc1nccn1-c1cc(CNC(=O)C(C)(C)C)ccn1`, the cytotoxicity at 70.5 h is -4.88%.

As for `O=C(NCc1cn2cccnc2n1)C1CC(=O)N(Cc2ccccn2)C1` (stereo unspecified), the cytotoxicity at 70.5 h is -6.73%.

For the compound `CN(CC(=O)N1CCc2[nH]c3ccccc3c2C1)CC1OCCO1`, the cytotoxicity at 70.5 h was 24%.

Take `CC(C)C1CN(c2ncccn2)CCC(=O)N1CC1CC1` (stereo unspecified): the cytotoxicity at 70.5 h came out at 36.1%.

With `COc1ccc(CN2C[C@@H]3CC[C@H](C2)N(S(=O)(=O)C2CC2)C3)cc1`, the cytotoxicity at 70.5 h was -5.41%.

`COc1c(F)cc(CN2CCC3(CC2)CN(C)C(=O)O3)cc1Cl`: the cytotoxicity at 70.5 h was -7.54%.

For `Cc1ccc(N2CCO[C@H]3CN(Cc4cnn(C)c4)C[C@H]32)nn1`, the cytotoxicity at 70.5 h was -19.2%.

Take `COc1ccc(C[C@H]2CN(C(=O)c3ccn(C)n3)CC[C@H]2OC)cc1`: the cytotoxicity at 70.5 h was -0.598%.

Turning to `Cc1cc(NCC(=O)N(C)C(C)c2cccs2)c(C(N)=O)cc1F` (stereo unspecified), the cytotoxicity at 70.5 h came out at 1.44%.

For the compound `O=C(CN1CCC(c2nnc(C(F)(F)F)o2)CC1)Nc1cccnc1`, the cytotoxicity at 70.5 h was -3.9%.

Consider `CCc1nc(CN2CCN(C(=O)C3CCCCC3)CC2)cs1`, for which the cytotoxicity at 70.5 h was -12.3%.

For `CC(C)(O)CN1CCC(=O)N(Cc2ccco2)Cc2cc(F)ccc21`, the cytotoxicity at 70.5 h came to 3.68%.

Turning to `CNc1ncccc1CN1CCCCC1c1cc(C)n2ccnc2n1` (stereo unspecified), the cytotoxicity at 70.5 h was -5.95%.

For `Cc1nc(CN2CCN3C[C@H](Oc4cncnc4)C[C@H]3C2)cs1`, the cytotoxicity at 70.5 h turned out to be 5.24%.

For the compound `COc1ccc(CN(C(=O)C2CCCO2)c2ccncc2)cc1` (stereo unspecified), the cytotoxicity at 70.5 h was -8.37%.

On to `Cc1ccc(CNc2ccccc2SCCC(N)=O)s1`, for which the cytotoxicity at 70.5 h is -99.2%.

For `O=C1CC2(CCCCC2)CC(=O)N1CC(O)COCc1ccc(Cl)cc1` (stereo unspecified), the cytotoxicity at 70.5 h is -6.34%.

In the case of `O=C1OCCN1Cc1cccc(F)c1C(F)(F)F`, the cytotoxicity at 70.5 h was -5.55%.

Regarding `Cn1cc(CNCCNc2ncc(Cl)cc2Cl)cn1`, the cytotoxicity at 70.5 h is -4.79%.

As to `O=c1cc(Cn2ccnc2)nc2n1CCCN(CC1CCOCC1)C2`, the cytotoxicity at 70.5 h is -19.5%.

Consider `CS(=O)(=O)N1CCN(c2cnnc(N3CCCC3)c2)CC1`, for which the cytotoxicity at 70.5 h is -12.9%.

For the compound `Cc1nccc(C2(C)CCCNC2)n1` (stereo unspecified), the cytotoxicity at 70.5 h worked out at 16.5%.

Consider `CC(C)c1ccc(O)c(C(=O)NCc2cc[nH]n2)c1`, for which the cytotoxicity at 70.5 h was 20.8%.

On to `CCc1nccn1CCNC1CCN(c2nc3ccc(Cl)cc3s2)CC1`, for which the cytotoxicity at 70.5 h turned out to be 40.5%.

Regarding `Oc1cc(C2CCNCC2)nc(-c2ccsc2)n1`, the cytotoxicity at 70.5 h is -4.35%.

With `CC(=O)Nc1nc(C(=O)Nc2ccc(N3CCCCC3)nc2)cs1`, the cytotoxicity at 70.5 h stood at 13.7%.

As for `COC(=O)C1CCN(c2cc(C)nc(-c3ccncc3)n2)CC1`, the cytotoxicity at 70.5 h is -8.27%.

For the compound `Cc1ccc(=O)n(CC(=O)N2CCCC(c3nc(C)c(C)s3)C2)n1` (stereo unspecified), the cytotoxicity at 70.5 h was -5.44%.

Turning to `CC(C)(CO)CCCNC(=O)N1CCc2c(F)ccc(F)c2C1`, the cytotoxicity at 70.5 h is -2.98%.

With `CC1CN(CC(=O)NCc2ccccc2)CCN1Cc1nccn1C` (stereo unspecified), the cytotoxicity at 70.5 h was 0.503%.

For the compound `CN1C[C@H](O)[C@]2(CCN(Cc3ccc(F)c(F)c3)C2)S1(=O)=O`, the cytotoxicity at 70.5 h stood at 13.9%.

For the compound `CCc1nnc(Nc2cccc(C3CCN(C(C)=O)CC3)n2)s1`, the cytotoxicity at 70.5 h was 44.9%.

For the compound `Cc1ccc(S(=O)(=O)Nc2ccc(-n3cccc3C(=O)O)c(C)c2)s1`, the cytotoxicity at 70.5 h was -3.61%.

For `CCn1c(C)nnc1CN(C)C1CCN(CC2CCC2)C1` (stereo unspecified), the cytotoxicity at 70.5 h was 26.1%.

`CC(=O)N1CCCC1c1nnn2cc(NCc3cccnc3)ccc12` (stereo unspecified): the cytotoxicity at 70.5 h is -18.3%.

As to `O=C(C1SCCc2ccccc21)N1CCC(O)CC1` (stereo unspecified), the cytotoxicity at 70.5 h was -7.52%.

Turning to `C1CN(CC2CC2)C(COCC2CC2)c2nnn(CC3CC3)c21` (stereo unspecified), the cytotoxicity at 70.5 h is -12.9%.

For `O=C(NC[C@H]1OC[C@@H]2CCN(Cc3ccco3)C[C@@H]21)c1ccsc1`, the cytotoxicity at 70.5 h was -5.61%.

For `COc1ccccc1CC(C)CC(=O)O` (stereo unspecified), the cytotoxicity at 70.5 h is -11.2%.

Consider `CCOCC1CN(c2ccc(C)nn2)Cc2cnn(CC)c21` (stereo unspecified), for which the cytotoxicity at 70.5 h is -5.73%.

As to `Cc1ccc(C(=O)N(Cc2ccc(F)cc2)C2CC2)c(=O)[nH]1`, the cytotoxicity at 70.5 h is -3.98%.

Take `CC(C)N1CCCC1c1cc(C(F)(F)F)[nH]n1` (stereo unspecified): the cytotoxicity at 70.5 h was found to be 0.712%.

As for `CCO[C@@H]1CC[C@H]2[C@H]1OCCN2C(=O)c1ccc(OC)c(F)c1`, the cytotoxicity at 70.5 h was -4.73%.

Consider `Cn1ccnc1NC[C@@H]1CCC[C@@H]2CN(Cc3cccnc3)C[C@@H]21`, for which the cytotoxicity at 70.5 h was 14.5%.

`COc1ccc(CN2CCOC[C@H](OCC(=O)N(C)C)C2)cc1`: the cytotoxicity at 70.5 h is -1.39%.

For `CC(C)N1CCOC[C@H]1c1nc(C(C)(C)C)c[nH]1`, the cytotoxicity at 70.5 h is 0.329%.

In the case of `CCc1nc(C)ncc1C(=O)N1CCCC(n2nc(C)nc2C)C1` (stereo unspecified), the cytotoxicity at 70.5 h was -12%.

Turning to `COCc1cc(N2CCOC(c3ccc(F)cc3)C2)ncn1` (stereo unspecified), the cytotoxicity at 70.5 h was -14.9%.

As to `Cc1noc(C)c1CN1C[C@@H](C(=O)O)[C@H](C(C)C)C1`, the cytotoxicity at 70.5 h was -10%.

Consider `COc1coc(CN2CCCC(CCc3ccc(F)cc3)C2)cc1=O` (stereo unspecified), for which the cytotoxicity at 70.5 h turned out to be 2.53%.

For the compound `COCCN(C/C=C/c1ccccc1)Cc1[nH]cnc1C`, the cytotoxicity at 70.5 h worked out at 1.05%.

`Cc1ccc(Cl)cc1NCc1nc2[nH]c(C)c(C)c(=O)n2n1`: the cytotoxicity at 70.5 h is -0.0581%.

On to `CC(C)N(CC(N)=O)Cc1csc(COc2ccc(F)cc2)n1`, for which the cytotoxicity at 70.5 h stood at 43.4%.

With `CNCc1cn(C2CCN(CCC(C)c3ccccc3)CC2)nn1` (stereo unspecified), the cytotoxicity at 70.5 h turned out to be 21.7%.

Regarding `Cc1nc(Nc2nnc(C)s2)cc(C2CCCN2C2CCCC2)n1` (stereo unspecified), the cytotoxicity at 70.5 h is -5.26%.

As for `O=C(c1ccncc1)N1C[C@@H]2CC[C@H](C1)N(C(=O)C1CCCC1)C2`, the cytotoxicity at 70.5 h is 2.1%.

Regarding `Cn1c(NCC(=O)N2CCCC2)c(C#N)c(=O)n(C)c1=O`, the cytotoxicity at 70.5 h was 12.4%.

On to `N#CCCCS(=O)(=O)NC(=O)c1cccc(Cl)c1F`, for which the cytotoxicity at 70.5 h is -2.7%.

As for `CCOc1ncccc1CNC(=O)NC1CCOc2ccccc21` (stereo unspecified), the cytotoxicity at 70.5 h is -4.63%.

On to `COc1ccccc1C(=O)N1CCN(C(=O)CCCc2cn[nH]c2)CC1`, for which the cytotoxicity at 70.5 h is -6.9%.

For `CCc1ccc(O)c(C(=O)N2CCCN(CC(=O)N(CC)CC)CC2)c1`, the cytotoxicity at 70.5 h was -0.346%.

With `O=C(Nc1ccc(F)c(Br)c1)N1CCCC1`, the cytotoxicity at 70.5 h is -1.36%.

With `COc1ccc(C(=O)NCCNC(=O)c2scnc2Cl)cc1`, the cytotoxicity at 70.5 h is -2.78%.

Take `CC(C)CCn1cc(C(C(=O)O)N2CCC(N3CCSCC3)CC2)cn1` (stereo unspecified): the cytotoxicity at 70.5 h is 3.77%.

As to `O=C(NCCCN1CCOCC1)c1cc(-c2ccc3c(c2)CCO3)n[nH]1`, the cytotoxicity at 70.5 h is -0.337%.

In the case of `O=C(O)c1ccc(COc2cccc(Cl)c2)s1`, the cytotoxicity at 70.5 h is -5.91%.

Turning to `CCC(CC)(CCCNC(=O)c1c(C)noc1C)C1OCCO1`, the cytotoxicity at 70.5 h is -5.03%.
